From patent US20020045669A1, “Anti-arrhythmic composition and methods of treatment” (priority 2000, published 2002)
Entries after “also recorded” stand apart in the source; their conditions may differ.

How the values were obtained:
[1] = tested on: DOCA/saline pre-treated rats with isoproterenol-induced arrhythmia; test: Arrhythmic reversal studies (established isoproterenol arrhythmia); format: in vivo, rat; conditions: i.v. bolus at one-half of the effective s.c. dose, five minutes after isoproterenol
Description: The animals were implanted with a 25 mg pellet of DOCA and maintained on the 1% saline as their drinking fluid as discussed above. The animals were anesthetized with Avertin and prepared for the recording of blood pressure and the EKG. In addition, the animal's left jugular vein was also cannulated with PE-50 tubing. The tubings were filled with saline and exteriorized dorsally between the animal's shoulders. Isoproterenol was administered s.c. at a dose of 150 μg/kg and an arrhythmia was allowed to develop for five minutes. […] Continuous blood pressure, heart rate and EKG readings were obtained. Additional Avertin was given as needed to maintain anesthesia. The hearts of the animals were perfused with buffered formalin immediately after the onset of ventricular fibrillation or one hour after the administration of isoproterenol.
(§1) Two kinds of anti-arrhythmic experiments were carried out, both prophylaxis and reversal studies. DOCA-treated animals were either first given the test compounds s.c. followed twenty minutes later by isoproterenol (prevention studies) or isoproterenol followed by the test compound given intravenously after five minutes (reversal studies). The time frames were chosen based on two issues: previous experience with the pharmacokinetics of polyamine analogues and the time required for isoproterenol to induce cardiac abnormalities and death in DOCA-treated rodents.

[2] = tested on: DOCA/saline pre-treated rats challenged with isoproterenol; test: Prevention of isoproterenol-induced arrhythmia and mortality in DOCA/saline pre-treated rats; format: in vivo, rat; conditions: for % SURVIVAL / ARRHYTHMIA (number of animals): 20 min before isoproterenol 150 μg/kg s.c.
Description: Briefly, rats were anesthetized with sodium pentobarbital (55 mg/kg. i.p.), and a 25 mg pellet of desoxycorticosterone acetate (DOCA) was implanted s.c. in the axillary region. The rats were allowed to recover from the anesthetic and returned to their home cages. The animals were given commercial rat chow and a 1% solution of saline as their drinking fluid ad libitum. The animals were maintained on this regimen for approximately thirty days.
Twenty minutes later, the rats were challenged with a single s.c. dose of isoproterenol, 150 μg/kg. The animals were closely monitored for one hour and any obvious arrhythmic episodes or mortalities were recorded.
as §1

[3] = tested on: normotensive rats; conditions: earlier results; cited from earlier work
[4] = tested on: mice exposed to deep chloroform anesthesia; test: Chloroform anesthesia-induced cardiac arrhythmia (Lawson procedure); format: in vivo; conditions: 100 mg/kg i.p., thirty minutes before chloroform; observed 15 minutes; <2 of three = significant protection
Description: In this procedure [Lawson, J. Pharmacol. Exer. Therap., Vol. 160, pages 22-31 (1968)], the test substance [diethylhomospermine (DEHSPM)] is administered i.p. (100 mg/kg) to a group of three mice thirty minutes before exposure to deep chloroform anesthesia and observed during the ensuing 15-minute period.

[5] = tested on: DOCA/saline pre-treated rats; test: Evaluation of blood pressure, heart rate and EKG in DOCA/saline rats; format: in vivo, rat; conditions: continuous monitoring, compound given s.c.
Description: Blood pressure and heart rate parameters, as well as an EKG, were evaluated for compounds displaying anti-arrhythmic properties. The animals were implanted with DOCA and maintained on 1% saline as their drinking fluid as discussed above. The animals were anesthetized with Avertin (tribromoethanol, 2.5%), 1 ml/100 g given i.p. and prepared for the recording of blood pressure and the EKG. To allow for the direct measurement of blood pressure, the animals's left carotid artery was cannulated with PE-50 tubing. The tubing was filled with saline and exteriorized dorsally between the animal's shoulders.
After the surgery was completed, the catheter in the carotid artery was connected to a blood pressure transducer (ADInstruments, Inc., Milford, Mass.). To allow for the recording of the EKG, 22 gauge needles were placed s.c. at the rat's left shoulder, right shoulder and left leg. The needles were then attached via alligator clips to a MacLab Bio Amplifier (ADInstruments, Inc., Milford, Mass.). […] A baseline blood pressure, heart rate and EKG were obtained, and the compound under investigation was administered s.c. Twenty minutes later, the animals were challenged with a single dose of isoproterenol, 150 μg/kg s.c. Continuous blood pressure, heart rate and EKG readings were obtained. […]

[6] = DOCA/isoproterenol-treated rats, prophylaxis

| Compound | effect on survival / activity in the model (in words) [2, 6] | % SURVIVAL ([2]; dose 115 μmol/kg s.c.) | ARRHYTHMIA (number of animals) ([2]; dose 115 μmol/kg s.c.) | anti-arrhythmic properties (in words) [2, 6] | other results |
| --- | --- | --- | --- | --- | --- |
| CC(C)NCC(O)COc1cccc2ccccc12 (racemic) [Propranolol, d,l-propranolol] | – | – | – | – | EKG pattern after treatment in reversal experiment [1]: reverted to a more normal pattern; evidence of ischemia in EKG in reversal experiment [1]: some evidence of ischemia; survival in reversal experiment [1]: survived |
| CCNCCCCCCCCCNCC [DE(9), C2H5—NH—(CH2)9—NH—C2H5] | no activity | 0% | 5 | – | – |
| CCNCCCCNCCCCNCCCCNCC [DEHSPM(4,4,4), diethylhomospermine] | none of the three polyamine anti-metabolites tested in this model had any effects on the survival | 0% | 5 | – | effect on blood pressure [3]: lower blood pressure; animals exhibiting cardiac arrhythmia (of three mice) [4]: one |
| CCNCCCNCCCNCCCNCC [DENSPM(3,3,3), diethylnorspermine] | none of the three polyamine anti-metabolites tested in this model had any effects on the survival | – | – | – | effect on blood pressure [3]: lower blood pressure; % SURVIVAL ([2]; dose 231 μmol/kg s.c.): 0%; ARRHYTHMIA (number of animals) ([2]; dose 231 μmol/kg s.c.): 5 |
| CCNCCCNCCCCNCCCNCC [DESPM(3,4,3), diethylspermine] | none of the three polyamine anti-metabolites tested in this model had any effects on the survival | 0% | 5 | – | – |
| FC(F)(F)CNCCCNCCCCNCCCNCC(F)(F)F [FDESPM, Di-β,β,β-trifluoroethylspermine] | – | 40% | 7 | some anti-arrhythmic prophylactic behavior | animals surviving ([2]; DOCA/isoproterenol-treated rats, prophylaxis, dose not given): 40% |
| C(CNC1CCNCC1)CNC1CCNCC1 [PIP(3,3,3)] | nor was it found to be active in this model | 0% | 5 | – | – |
| c1cc(NCCCNc2ccncc2)ccn1 [PYR(3,3,3)] | – | 100% | 2 | presented with anti-arrhythmic properties; also recorded: performed best | EKG pattern after treatment in reversal experiment [1]: reverted to a normal appearance; evidence of ischemia in EKG in reversal experiment [1]: little to no evidence of ischemia; effects on blood pressure and heart rate [5]: No appreciable effects on blood pressure and heart rate; % SURVIVAL ([2]; dose 14 μmol/kg s.c.): 40%; ARRHYTHMIA (number of animals) ([2]; dose 14 μmol/kg s.c.): 5; % SURVIVAL ([2]; dose 28 μmol/kg s.c.): 40%; ARRHYTHMIA (number of animals) ([2]; dose 28 μmol/kg s.c.): 5; % SURVIVAL ([2]; dose 59 μmol/kg s.c.): 60%; ARRHYTHMIA (number of animals) ([2]; dose 59 μmol/kg s.c.): 4 |
| c1cc(NCCCCNc2ccncc2)ccn1 [PYR(3,4,3)] | – | 60% | 2 | presented with anti-arrhythmic properties | % SURVIVAL ([2]; dose 59 μmol/kg s.c.): 60%; ARRHYTHMIA (number of animals) ([2]; dose 59 μmol/kg s.c.): 2; % SURVIVAL ([2]; dose 231 μmol/kg s.c.): 80%; ARRHYTHMIA (number of animals) ([2]; dose 231 μmol/kg s.c.): 2 |
| c1cc(CNCCCCNCc2ccncc2)ccn1 [PYR(4,4,4)] | – | 0% | 5 | presented with anti-arrhythmic properties | % SURVIVAL ([2]; dose 231 μmol/kg s.c.): 40%; ARRHYTHMIA (number of animals) ([2]; dose 231 μmol/kg s.c.): 2 |
| NCCCCN [Putrescine(4), Putrescine, reference compound] | no effect on survival | 0% | 5 | – | % SURVIVAL ([2]; dose 1240 μmol/kg s.c.): 0%; ARRHYTHMIA (number of animals) ([2]; dose 1240 μmol/kg s.c.): 5; % SURVIVAL ([2]; dose 1861 μmol/kg s.c.): 0%; ARRHYTHMIA (number of animals) ([2]; dose 1861 μmol/kg s.c.): 5 |
